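Tested at 5 concentrations; 48 h exposure; 96-well plates; endpoints linearly interpolated, else capped at highest concentration. Abbreviation: GI50, concentration required for 50% inhibition of growth.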 Calls of active or inactive are those of the source. No stated cut-off is given here; in the data, active = GI50 up to about 1.1 µM and inactive = higher.
Assays:
Test in all cases: NCI anticancer screen, dose series, 48 h
Malme-3M = tested on: Malme-3M
NCI-H460 = tested on: NCI-H460
SK-MEL-28 = tested on: SK-MEL-28
K562 = tested on: K562
EKVX = tested on: EKVX
SK-MEL-2 = tested on: SK-MEL-2
HL-60 = tested on: HL-60
HCC 2998 = tested on: HCC 2998
DLD-1 = tested on: DLD-1
OVCAR-3 = tested on: OVCAR-3
IGROV-1 = tested on: IGROV-1
A549 = tested on: A549
SF-295 = tested on: SF-295
UACC-257 = tested on: UACC-257
SK-MEL-5 = tested on: SK-MEL-5
SNB-78 = tested on: SNB-78
PC-3 = tested on: PC-3
DU-145 = tested on: DU-145
T47D = tested on: T47D
BT-549 = tested on: BT-549

Row | SMILES | GI50 (Malme-3M) | GI50 (NCI-H460) | GI50 (SK-MEL-28) | GI50 (K562) | GI50 (EKVX) | GI50 (SK-MEL-2) | GI50 (HL-60) | GI50 (HCC 2998) | GI50 (DLD-1) | GI50 (OVCAR-3) | GI50 (IGROV-1) | GI50 (A549) | GI50 (SF-295) | GI50 (UACC-257) | GI50 (SK-MEL-5) | GI50 (SNB-78) | GI50 (PC-3) | GI50 (DU-145) | GI50 (T47D) | GI50 (BT-549)
1 | COc1ccc(OC)c(/C(C)=N/NC(N)=S)c1 | > 100 µM (inactive) | > 100 µM (inactive) | > 100 µM (inactive) | > 100 µM (inactive) | > 100 µM (inactive) | > 100 µM (inactive) | > 100 µM (inactive) | > 100 µM (inactive) | > 100 µM (inactive) | > 100 µM (inactive) | > 100 µM (inactive) | > 100 µM (inactive) | > 100 µM (inactive) | > 100 µM (inactive) | > 100 µM (inactive) | > 100 µM (inactive) |  |  |  | 
2 | COC(=O)C1CC2c3c(c4ccccc4n3C)CC(C1=O)N2C (centres undefined) | 43.9 µM (inactive) | 45.3 µM (inactive) | 51.9 µM (inactive) | 40.1 µM (inactive) | 57.1 µM (inactive) | > 100 µM (inactive) | 27.3 µM (inactive) | 34.8 µM (inactive) | 40.9 µM (inactive) | 34.8 µM (inactive) | 52.8 µM (inactive) | 36.4 µM (inactive) | > 100 µM (inactive) | 32.8 µM (inactive) | 25.1 µM (inactive) | 47 µM (inactive) |  |  |  | 
3 | N=C1CSC2=NC3=C(CCC/C3=C\c3ccccc3)C(c3ccccc3)N12 (centres undefined) | 17.2 µM (inactive) | 3.42 µM (inactive) | 7.5 µM (inactive) | 3.21 µM (inactive) | 2.62 µM (inactive) | 2.27 µM (inactive) | 2.34 µM (inactive) | 3.31 µM (inactive) | 5.4 µM (inactive) | 2.72 µM (inactive) | 5.6 µM (inactive) | 4.07 µM (inactive) | 5.85 µM (inactive) | 11.5 µM (inactive) | 6.31 µM (inactive) | 5.77 µM (inactive) |  |  |  | 
4 | CC(C)OP(=O)(OC(C)C)/C(=N/Nc1ccc([N+](=O)[O-])cc1)Nc1ccccc1 | 19.8 µM (inactive) | 33 µM (inactive) | 23.9 µM (inactive) | 21.1 µM (inactive) | 35.1 µM (inactive) | 40.1 µM (inactive) | 18.2 µM (inactive) | 49.5 µM (inactive) | 28.1 µM (inactive) | 32.2 µM (inactive) |  | 23.1 µM (inactive) |  | 21 µM (inactive) | 12.2 µM (inactive) | 17.5 µM (inactive) |  |  |  | 
5 | O=S1(=O)OCCOS(=O)(=O)C1(Br)Cc1ccccc1 | > 100 µM (inactive) | > 100 µM (inactive) | > 100 µM (inactive) | > 100 µM (inactive) | > 100 µM (inactive) | > 100 µM (inactive) | > 100 µM (inactive) | > 100 µM (inactive) | > 100 µM (inactive) | > 100 µM (inactive) | > 100 µM (inactive) | > 100 µM (inactive) | > 100 µM (inactive) | > 100 µM (inactive) | > 100 µM (inactive) | > 100 µM (inactive) |  |  |  | 
6 | CC1=NC2(C(=O)O)C3(C(=O)O)N=C(C)OC3(C(F)(F)F)C2(C(F)(F)F)O1 (centres undefined) | > 100 µM (inactive) | > 100 µM (inactive) | > 100 µM (inactive) | > 100 µM (inactive) | > 100 µM (inactive) | > 100 µM (inactive) | > 100 µM (inactive) | > 100 µM (inactive) | > 100 µM (inactive) | > 100 µM (inactive) | > 100 µM (inactive) | > 100 µM (inactive) | > 100 µM (inactive) | > 100 µM (inactive) |  | > 100 µM (inactive) |  |  |  | 
7 | C=C1C(=O)OC2C1CC[C@H](C)C13OC(=O)CC1[C@@]23C (some centres undefined) | > 100 µM (inactive) | > 100 µM (inactive) | > 100 µM (inactive) | > 100 µM (inactive) | > 100 µM (inactive) | > 100 µM (inactive) | > 100 µM (inactive) | > 100 µM (inactive) | > 100 µM (inactive) | > 100 µM (inactive) | > 100 µM (inactive) | > 100 µM (inactive) | > 100 µM (inactive) | > 100 µM (inactive) | > 100 µM (inactive) | > 100 µM (inactive) |  |  |  | 
8 | COC1=CC(=O)c2c(O)c3c(c(O)c2C1=O)C[C@](C)(O)C[C@@H]3O | 1.03 µM (active) | 1.65 µM (inactive) | 7.05 µM (inactive) | 4.24 µM (inactive) | 8.04 µM (inactive) | 3.35 µM (inactive) | 1.62 µM (inactive) | 3.67 µM (inactive) | 1.31 µM (inactive) | 0.861 µM (active) | 4.61 µM (inactive) | 2.93 µM (inactive) | 3.51 µM (inactive) | 1.99 µM (inactive) | 1.33 µM (inactive) | 3.85 µM (inactive) | 3.4 µM (inactive) | 4.11 µM (inactive) | 6.98 µM (inactive) | 7.76 µM (inactive)
9 | COc1ccc(/N=C\c2ccc(N(CCC#N)CCC#N)cc2)cc1 | > 84.9 µM (inactive) | 43.1 µM (inactive) | > 81.1 µM (inactive) | 7.62 µM (inactive) | > 100 µM (inactive) | > 67.1 µM (inactive) | 22.3 µM (inactive) | 38.8 µM (inactive) | 24.9 µM (inactive) | 78.3 µM (inactive) | 82 µM (inactive) | 47.9 µM (inactive) | 54.1 µM (inactive) | > 100 µM (inactive) | 40.4 µM (inactive) | > 100 µM (inactive) | 47 µM (inactive) | > 100 µM (inactive) | > 100 µM (inactive) | > 38.9 µM (inactive)
10 | CN(C)c1ccccc1CC(c1c[nH]c2ccccc12)c1c[nH]c2ccccc12 | 17.1 µM (inactive) | 4.72 µM (inactive) |  | 10.7 µM (inactive) | 5.38 µM (inactive) | 14.8 µM (inactive) | 7.93 µM (inactive) | 9.46 µM (inactive) | 15.7 µM (inactive) | 12.8 µM (inactive) | 15.8 µM (inactive) | 10.2 µM (inactive) | 11.9 µM (inactive) | 16.2 µM (inactive) | 15.3 µM (inactive) | 14.4 µM (inactive) |  |  |  | 
